Molecular target: ACE2 (Homo sapiens, UniProt Q9BYF1)
Experiment: affinity ultrafiltration-HPLC/MS from crude extract against heat-inactivated control; identity by standard
Assay type: binding

ACE2, sequence (Q9BYF1 18-805): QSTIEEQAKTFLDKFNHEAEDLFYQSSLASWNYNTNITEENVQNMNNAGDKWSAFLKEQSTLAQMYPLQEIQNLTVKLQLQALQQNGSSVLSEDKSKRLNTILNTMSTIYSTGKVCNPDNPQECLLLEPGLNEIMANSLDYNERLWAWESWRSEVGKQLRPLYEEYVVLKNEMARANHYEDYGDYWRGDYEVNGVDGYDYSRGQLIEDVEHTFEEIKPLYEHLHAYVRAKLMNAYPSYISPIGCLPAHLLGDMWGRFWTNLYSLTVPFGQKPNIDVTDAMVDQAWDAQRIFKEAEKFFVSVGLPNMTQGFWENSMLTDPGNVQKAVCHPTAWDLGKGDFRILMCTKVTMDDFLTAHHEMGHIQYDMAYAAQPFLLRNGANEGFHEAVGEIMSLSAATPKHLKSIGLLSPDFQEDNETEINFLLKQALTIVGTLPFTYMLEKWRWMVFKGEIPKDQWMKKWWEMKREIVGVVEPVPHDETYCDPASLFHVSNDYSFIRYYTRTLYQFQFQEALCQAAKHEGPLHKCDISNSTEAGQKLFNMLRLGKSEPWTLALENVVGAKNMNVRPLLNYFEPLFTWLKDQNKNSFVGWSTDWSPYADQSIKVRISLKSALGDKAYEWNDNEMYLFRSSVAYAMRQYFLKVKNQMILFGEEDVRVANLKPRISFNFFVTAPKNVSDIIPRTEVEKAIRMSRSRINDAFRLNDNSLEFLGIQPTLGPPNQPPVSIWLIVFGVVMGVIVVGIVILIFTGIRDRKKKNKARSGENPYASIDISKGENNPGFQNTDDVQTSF

| SMILES | EFs ^b (%) / ACE2 |
| --- | --- |
| O=c1c(O)c(-c2ccc(O)cc2)oc2cc(O)cc(O)c12 [Peak 7, Kaempferol] | 3.10 % (enrichment factor) |
| COc1cc2c(O)c3c(c(-c4ccc5c(c4)OCO5)c2cc1OC)C(=O)OC3 [Peak 10, Diphyllin] | 3.68 % (enrichment factor) |

Reference: paper PMC8573357, “Exploring Multifunctional Bioactive Components from Podophyllum sinense Using Multi-Target Ultrafiltration” (Frontiers in Pharmacology, 2021)
